Results taken from BindingDB's records for doi:10.1021/acs.jmedchem.1c00049 (Genentech, 2021).
pIC50: −log10 of the molar value.

Assays:
[1] = Inhibition of human Nav1.7 expressed in HEK293 cells incubated for 1 hr in presence of veratridine by sodium influx assay
[2] = Displacement of [3H]GX-545 Nav1.7 (unknown origin) expressed in HEK cells by liquid scintillation counting based radioligand competition assay

Row | pIC50 [1] | pIC50 [2] | SMILES
1 | 7.47 | 8.01 | CS(=O)(=O)NC(=O)c1cc(C2CC2)c(OCC2CCN(C(=O)c3cc(Cl)cc(Cl)c3)CC2)cc1F [US9546164, 253]
2 | 7.38 | 7.66 | CS(=O)(=O)NC(=O)c1cc(C2CC2)c(OCC2CCN(Cc3ccc(Cl)cc3)CC2)cc1F [US9546164, 104]
3 | 7.42 | 8.40 | O=C(NS(=O)(=O)C1COC1)c1cc(C2CC2)c(OCC23CC4CC(CC(C4)C2)C3)cc1F
4 | 7.59 | 9.10 | CC(C)(c1cc(Cl)cc(Cl)c1)N1CCC(COc2cc(F)c(C(=O)NS(C)(=O)=O)cc2C2CC2)CC1 [US9546164, 209]
5 | 7.85 | 8.96 | O=C(NS(=O)(=O)C1CC1)c1cc(C2CC2)c(OCC23CC4CC(CC(C4)C2)C3)cc1F [US8952169, 148]
6 | 7.64 | 8.26 | CS(=O)(=O)NC(=O)c1cc(C2CC2)c(OCC2CN(C(c3ccccc3)c3ccccc3)C2)cc1F [US8952169, 440]
7 | 7.51 | 8.11 | CS(=O)(=O)NC(=O)c1cc(C2CC2)c(OCC2CCN(Cc3ccc(OC(F)(F)F)cc3)CC2)cc1F [US9546164, 135]
8 | 6.80 | 8.66 | O=C(NS(=O)(=O)N1CCCC1)c1cc(C2CC2)c(OCC23CC4CC(CC(C4)C2)C3)cc1F [US8952169, 154]
9 | 7.18 | 8.44 | CS(=O)(=O)NC(=O)c1cc(C2CC2)c(OCC2CCN(C(c3ccccc3)c3ccccc3)CC2)cc1F
10 | 6.92 | 8.62 | CS(=O)(=O)NC(=O)c1cc(C2CC2)c(OCC2CCN(Cc3cc(Cl)cc(Cl)c3)CC2)cc1F [US9546164, 139]
11 | 5.49 | 6.85 | CS(=O)(=O)NC(=O)c1cc(C2CC2)c(OCC2CCN(Cc3ccccc3)CC2)cc1F
12 |  | 8.64 | O=C(NS(=O)(=O)N1CCOCC1)c1cc(C2CC2)c(OCC23CC4CC(CC(C4)C2)C3)cc1F [US8952169, 155]
